Earlier results in patent publication US20190298786A1, “EXTRACTS OF SAUDI ARABIAN HERBAL PLANTS, ANTI-CANCER METHOD USING SUCH EXTRACTS, AND CYTOLOGICAL PROFILING USING AUTOMATED HIGH-CONTENT IMAGING TECHNIQUE” (King Abdullah University of Science and Technology, priority 2016, published 2019).
Converted amounts (≈) assume the structure as drawn.

Tests used:
[1] = system: human cervical cancer (HOG-1) cell; conditions: HOG-1 cells, different concentrations

SMILES | effect on cell growth and DNA synthesis [1] | IC50 (cytotoxic effects) (MCF7 cells) [µg/mL] | IC50 (cytotoxic effects) (CasKi cells) [µg/mL] | IC50 (cytotoxic effects) (KB cells) [µg/mL]
CCCCCCCCCCCCCCCCCC(=O)O [stearic acid, Stearic acid] | inhibited | – | – | –
CC(C)(C)c1ccc(O)c(C(C)(C)C)c1 [2,4-ditert-butylphenol] | – | 5.75 (≈ 27.9 µM) | 4.5 (≈ 21.8 µM) | 0.81 (≈ 3.93 µM)
